Source: patent US10294202B2, “Pyrrolidinones as herbicides” (FMC Corporation, priority 2013, dated 2019)

Legend:
lambsquarters = assay: Test C pre-/postemergence herbicide test; format: in vivo, Chenopodium album
How it was run: (§1)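 Pre- and postemergence greenhouse screen. Preemergence treatment went onto freshly planted seeds in loam–sand soil; postemergence treatment went onto plants 2 to 18 cm tall at the 1- to 4-leaf stage in sphagnum peat/vermiculite medium. Scoring at 13 to 15 days used a 0–100 control scale.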

pigweed [1] = assay: Test C pre-/postemergence herbicide test; format: in vivo, Amaranthus retroflexus
How it was run: as §1

pigweed [2] = assay: Test A pre-/postemergence herbicide test; format: in vivo, Amaranthus retroflexus; conditions: for Plant response rating, Pigweed: 0 to 100 scale
How it was run: (§2)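 Visual injury ratings, 0 = no effect, 100 = complete control, taken ~10 days after treatment against untreated greenhouse controls. Preemergence: directed soil spray onto seeded loam/sand pots. Postemergence: spray onto plants at one- to two-leaf stage, 2–10 cm tall.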

corn = assay: Test C pre-/postemergence herbicide test; format: in vivo, Zea mays
How it was run: as §1

nutsedge, yellow = assay: Test C pre-/postemergence herbicide test; format: in vivo, Cyperus esculentus
How it was run: as §1

foxtail, giant = assay: Test C pre-/postemergence herbicide test; format: in vivo, Setaria faberii
How it was run: as §1

waterhemp = assay: Test C pre-/postemergence herbicide test; format: in vivo, Amaranthus rudis
How it was run: as §1

velvetleaf = assay: Test C pre-/postemergence herbicide test; format: in vivo, Abutilon theophrasti
How it was run: as §1

oilseed rape = assay: Test C pre-/postemergence herbicide test; format: in vivo, Brassica napus
How it was run: as §1

galium = assay: Test C pre-/postemergence herbicide test; format: in vivo, Galium aparine
How it was run: as §1

wheat = assay: Test A pre-/postemergence herbicide test; format: in vivo, Triticum aestivum; conditions: Postemergence; for Plant response rating, Wheat: 125 g ai/ha, 0 to 100 scale; for Wheat plant response rating (0 to 100 scale, 0 is no effect, 100 is complete control): 500 g ai/ha
How it was run: as §2

johnsongrass = assay: Test C pre-/postemergence herbicide test; format: in vivo, Sorghum halepense
How it was run: as §1

[3] = Postemergence, 31 g ai/ha, scale 0 to 100 (0 no effect, 100 complete control)
[4] = Postemergence, 62 g ai/ha, scale 0 (no effect) to 100 (complete control)
[5] = Postemergence, 125 g ai/ha, scale 0 to 100 (0 no effect, 100 complete control)
[6] = Postemergence, 250 g ai/ha, scale 0 to 100 (0 no effect, 100 complete control)
[7] = Preemergence, 31 g ai/ha, scale 0 to 100, 0 is no effect and 100 is complete control
[8] = Preemergence, 62 g ai/ha, scale 0 to 100 (0 no effect, 100 complete control)
[9] = Preemergence, 125 g ai/ha, scale 0 to 100 (0 no effect, 100 complete control)
[10] = 125 g ai/ha, visual rating, 0 no effect, 100 complete control, approximately 10 days, preemergence
[11] = Preemergence, 62 g ai/ha, scale 0 to 100

## O=C1NCC(c2ccc(C(F)(F)F)cc2)C1C(=O)Nc1ccc(F)c(F)c1F (stereo not drawn) [Compound 232]
lambsquarters; [3]
  Plant response rating, Lambsquarters: 80
lambsquarters; [4]
  Plant response rating, Lambsquarters: 85
lambsquarters; [5]
  Plant response rating, Lambsquarters: 85
lambsquarters; [6]
  Plant response rating, Lambsquarters: 85
lambsquarters; [7]
  Lambsquarters plant response rating: 75
lambsquarters; [8]
  Lambsquarters plant response rating: 85
lambsquarters; [9]
  Plant response rating, Lambsquarters: 90
lambsquarters; Preemergence, 250 g ai/ha
  Plant response rating (scale of 0 to 100), Lambsquarters: 90
Pigweed [1]; [3]
  Plant response rating, Pigweed: 80
Pigweed [1]; [4]
  Plant response rating, Pigweed: 85
Pigweed [1]; [5]
  Plant response rating, Pigweed: 85
Pigweed [1]; [6]
  Plant response rating, Pigweed: 85
Pigweed [1]; [7]
  Pigweed plant response rating: 85
Pigweed [1]; [8]
  Pigweed plant response rating: 85
Pigweed [1]; [9]
  Plant response rating, Pigweed: 85
Pigweed [1]; Preemergence, 250 g ai/ha
  Plant response rating (scale of 0 to 100), Pigweed: 95
Pigweed [2]; [10]
  Plant response rating, Pigweed: 50
Pigweed [2]; Postemergence, 125 g ai/ha, 0 is no effect, 100 is complete control
  Plant response rating, Pigweed: 80
Pigweed [2]; Postemergence, 500 g ai/ha
  Pigweed plant response rating (0 to 100 scale, 0 is no effect, 100 is complete control): 90
Pigweed [2]; preemergence, 500 g ai/ha, 0 is no effect and 100 is complete control
  Plant response rating, Pigweed: 60
corn; [3]
  Plant response rating, Corn: 0
corn; [4]
  Plant response rating, Corn: 0
corn; [5]
  Plant response rating, Corn: 0
corn; [6]
  Plant response rating, Corn: 0
corn; [7]
  Corn plant response rating: 0
corn; [8]
  Corn plant response rating: 35
corn; [9]
  Plant response rating, Corn: 70
corn; Preemergence, 250 g ai/ha
  Plant response rating (scale of 0 to 100), Corn: 75
nutsedge, yellow; [3]
  Plant response rating, Nutsedge, Yellow: 0
nutsedge, yellow; [4]
  Plant response rating, Nutsedge, Yellow: 0
nutsedge, yellow; [5]
  Plant response rating, Nutsedge, Yellow: 5
nutsedge, yellow; [6]
  Plant response rating, Nutsedge, Yellow: 5
nutsedge, yellow; [7]
  Nutsedge, Yellow plant response rating: 0
nutsedge, yellow; [8]
  Nutsedge, Yellow plant response rating: 0
nutsedge, yellow; [9]
  Plant response rating, Nutsedge, Yellow: 0
nutsedge, yellow; Preemergence, 250 g ai/ha
  Plant response rating (scale of 0 to 100), Nutsedge, Yellow: 100
foxtail, giant; [3]
  Plant response rating, Foxtail, Giant: 0
foxtail, giant; [4]
  Plant response rating, Foxtail, Giant: 5
foxtail, giant; [5]
  Plant response rating, Foxtail, Giant: 15
foxtail, giant; [6]
  Plant response rating, Foxtail, Giant: 70
foxtail, giant; [7]
  Foxtail, Giant plant response rating: 85
foxtail, giant; [8]
  Foxtail, Giant plant response rating: 90
foxtail, giant; [9]
  Plant response rating, Foxtail, Giant: 90
foxtail, giant; Preemergence, 250 g ai/ha
  Plant response rating (scale of 0 to 100), Foxtail, Giant: 95
waterhemp; [3]
  Plant response rating, Waterhemp: 75
waterhemp; [4]
  Plant response rating, Waterhemp: 75
waterhemp; [5]
  Plant response rating, Waterhemp: 80
waterhemp; [6]
  Plant response rating, Waterhemp: 80
waterhemp; [7]
  Waterhemp plant response rating: 85
waterhemp; [8]
  Waterhemp plant response rating: 90
waterhemp; [9]
  Plant response rating, Waterhemp: 90
waterhemp; Preemergence, 250 g ai/ha
  Plant response rating (scale of 0 to 100), Waterhemp: 95
velvetleaf; [3]
  Plant response rating, Velvetleaf: 5
velvetleaf; [4]
  Plant response rating, Velvetleaf: 15
velvetleaf; [5]
  Plant response rating, Velvetleaf: 30
velvetleaf; [6]
  Plant response rating, Velvetleaf: 60
velvetleaf; [7]
  Velvetleaf plant response rating: 25
velvetleaf; [8]
  Velvetleaf plant response rating: 40
velvetleaf; [9]
  Plant response rating, Velvetleaf: 65
velvetleaf; Preemergence, 250 g ai/ha
  Plant response rating (scale of 0 to 100), Velvetleaf: 75
Oilseed rape; [3]
  Plant response rating, Oilseed Rape: 0
Oilseed rape; [4]
  Plant response rating, Oilseed Rape: 50
Oilseed rape; [5]
  Plant response rating, Oilseed Rape: 65
Oilseed rape; [6]
  Plant response rating, Oilseed Rape: 40
Oilseed rape; [7]
  Oilseed Rape plant response rating: 30
Oilseed rape; [8]
  Oilseed Rape plant response rating: 30
Oilseed rape; [9]
  Plant response rating, Oilseed Rape: 50
Oilseed rape; Preemergence, 250 g ai/ha
  Plant response rating (scale of 0 to 100), Oilseed Rape: 85
galium; [3]
  Plant response rating, Galium: 75
galium; [4]
  Plant response rating, Galium: 80
galium; [5]
  Plant response rating, Galium: 80
galium; [6]
  Plant response rating, Galium: 80
galium; [7]
  Galium plant response rating: 85
galium; [8]
  Galium plant response rating: 85
galium; [9]
  Plant response rating, Galium: 90
galium; Preemergence, 250 g ai/ha
  Plant response rating (scale of 0 to 100), Galium: 90
wheat; 0 is no effect, 100 is complete control
  Plant response rating, Wheat: 30
wheat
  Wheat plant response rating (0 to 100 scale, 0 is no effect, 100 is complete control): 50
johnsongrass; [3]
  Plant response rating, Johnsongrass: 0
johnsongrass; [4]
  Plant response rating, Johnsongrass: 20
johnsongrass; [5]
  Plant response rating, Johnsongrass: 20
johnsongrass; [6]
  Plant response rating, Johnsongrass: 25
johnsongrass; [7]
  Johnsongrass plant response rating: 0
johnsongrass; [8]
  Johnsongrass plant response rating: 20
johnsongrass; [9]
  Plant response rating, Johnsongrass: 60
johnsongrass; Preemergence, 250 g ai/ha
  Plant response rating (scale of 0 to 100), Johnsongrass: 70

## O=C1NCC(c2ccc(F)cc2)C1C(=O)Nc1cccc(F)c1F (racemic) [Compound 119]
lambsquarters; [3]
  Plant response rating, Lambsquarters: 5
lambsquarters; [4]
  Plant response rating, Lambsquarters: 50
lambsquarters; [5]
  Plant response rating, Lambsquarters: 75
lambsquarters; [6]
  Plant response rating, Lambsquarters: 70
lambsquarters; [7]
  Lambsquarters plant response rating: 25
lambsquarters; [11]
  Plant response rating, Lambsquarters: 60
lambsquarters; [9]
  Plant response rating, Lambsquarters: 85
lambsquarters; Preemergence, 250 g ai/ha
  Plant response rating (scale of 0 to 100), Lambsquarters: 85
Pigweed [1]; [3]
  Plant response rating, Pigweed: 10
Pigweed [1]; [4]
  Plant response rating, Pigweed: 10
Pigweed [1]; [5]
  Plant response rating, Pigweed: 15
Pigweed [1]; [6]
  Plant response rating, Pigweed: 25
Pigweed [1]; [7]
  Pigweed plant response rating: 30
Pigweed [1]; [11]
  Plant response rating, Pigweed: 60
Pigweed [1]; [9]
  Plant response rating, Pigweed: 75
Pigweed [1]; Preemergence, 250 g ai/ha
  Plant response rating (scale of 0 to 100), Pigweed: 85
Pigweed [2]; [10]
  Plant response rating, Pigweed: 30
Pigweed [2]; Postemergence, 125 g ai/ha, 0 no effect, 100 complete control
  Plant response rating, Pigweed: 30
Pigweed [2]; Postemergence, 500 g ai/ha
  Pigweed plant response rating (0 to 100 scale, 0 is no effect, 100 is complete control): 30
Pigweed [2]; preemergence, 500 g ai/ha
  Plant response rating, Pigweed: 40
corn; [3]
  Plant response rating, Corn: 0
corn; [4]
  Plant response rating, Corn: 0
corn; [5]
  Plant response rating, Corn: 0
corn; [6]
  Plant response rating, Corn: 5
corn; [7]
  Corn plant response rating: 0
corn; [11]
  Plant response rating, Corn: 0
corn; [9]
  Plant response rating, Corn: 15
corn; Preemergence, 250 g ai/ha
  Plant response rating (scale of 0 to 100), Corn: 45
nutsedge, yellow; [3]
  Plant response rating, Nutsedge, Yellow: 0
nutsedge, yellow; [4]
  Plant response rating, Nutsedge, Yellow: 0
nutsedge, yellow; [5]
  Plant response rating, Nutsedge, Yellow: 0
nutsedge, yellow; [6]
  Plant response rating, Nutsedge, Yellow: 0
nutsedge, yellow; [7]
  Nutsedge, Yellow plant response rating: 0
nutsedge, yellow; [11]
  Plant response rating, Nutsedge, Yellow: 0
nutsedge, yellow; [9]
  Plant response rating, Nutsedge, Yellow: 0
nutsedge, yellow; Preemergence, 250 g ai/ha
  Plant response rating (scale of 0 to 100), Nutsedge, Yellow: 0
foxtail, giant; [3]
  Plant response rating, Foxtail, Giant: 10
foxtail, giant; [4]
  Plant response rating, Foxtail, Giant: 25
foxtail, giant; [5]
  Plant response rating, Foxtail, Giant: 85
foxtail, giant; [6]
  Plant response rating, Foxtail, Giant: 90
foxtail, giant; [7]
  Foxtail, Giant plant response rating: 90
foxtail, giant; [11]
  Plant response rating, Foxtail, Giant: 90
foxtail, giant; [9]
  Plant response rating, Foxtail, Giant: 98
foxtail, giant; Preemergence, 250 g ai/ha
  Plant response rating (scale of 0 to 100), Foxtail, Giant: 98
waterhemp; [3]
  Plant response rating, Waterhemp: 0
waterhemp; [4]
  Plant response rating, Waterhemp: 0
waterhemp; [5]
  Plant response rating, Waterhemp: 0
waterhemp; [6]
  Plant response rating, Waterhemp: 40
waterhemp; [7]
  Waterhemp plant response rating: 20
waterhemp; [11]
  Plant response rating, Waterhemp: 65
waterhemp; [9]
  Plant response rating, Waterhemp: 70
waterhemp; Preemergence, 250 g ai/ha
  Plant response rating (scale of 0 to 100), Waterhemp: 80
velvetleaf; [3]
  Plant response rating, Velvetleaf: 0
velvetleaf; [4]
  Plant response rating, Velvetleaf: 0
velvetleaf; [5]
  Plant response rating, Velvetleaf: 15
velvetleaf; [6]
  Plant response rating, Velvetleaf: 20
velvetleaf; [7]
  Velvetleaf plant response rating: 0
velvetleaf; [11]
  Plant response rating, Velvetleaf: 15
velvetleaf; [9]
  Plant response rating, Velvetleaf: 40
velvetleaf; Preemergence, 250 g ai/ha
  Plant response rating (scale of 0 to 100), Velvetleaf: 50
Oilseed rape; [3]
  Plant response rating, Oilseed Rape: 0
Oilseed rape; [4]
  Plant response rating, Oilseed Rape: 0
Oilseed rape; [5]
  Plant response rating, Oilseed Rape: 0
Oilseed rape; [6]
  Plant response rating, Oilseed Rape: 5
Oilseed rape; [7]
  Oilseed Rape plant response rating: 0
Oilseed rape; [11]
  Plant response rating, Oilseed Rape: 5
Oilseed rape; [9]
  Plant response rating, Oilseed Rape: 80
Oilseed rape; Preemergence, 250 g ai/ha
  Plant response rating (scale of 0 to 100), Oilseed Rape: 80
galium; [7]
  Galium plant response rating: 80
galium; [11]
  Plant response rating, Galium: 80
galium; [9]
  Plant response rating, Galium: 85
galium; Preemergence, 250 g ai/ha
  Plant response rating (scale of 0 to 100), Galium: 90
wheat; 0 no effect, 100 complete control
  Plant response rating, Wheat: 20
wheat
  Wheat plant response rating (0 to 100 scale, 0 is no effect, 100 is complete control): 70
johnsongrass; [3]
  Plant response rating, Johnsongrass: 0
johnsongrass; [4]
  Plant response rating, Johnsongrass: 0
johnsongrass; [5]
  Plant response rating, Johnsongrass: 0
johnsongrass; [6]
  Plant response rating, Johnsongrass: 5
johnsongrass; [7]
  Johnsongrass plant response rating: 0
johnsongrass; [11]
  Plant response rating, Johnsongrass: 0
johnsongrass; [9]
  Plant response rating, Johnsongrass: 30
johnsongrass; Preemergence, 250 g ai/ha
  Plant response rating (scale of 0 to 100), Johnsongrass: 70
